Measurements: PMC4060991, “The Human Orphan Nuclear Receptor Tailless (TLX, NR2E1) Is Druggable” (PLoS ONE, 2014)
Where two headings read alike, the source gives them in different places.

How the values were obtained:
TLX LBD = TLX LBD (Homo sapiens, UniProt Q9Y466); assay: GAL4-TLX LBD luciferase transactivation assay in HeLa cells; type: cell-based; set-up: expressed in transfected cells; host or cells: HeLa
Experimental: The luciferase reporter pGL4.35 [luc2P/9XGAL4UAS/Hygro] vector was obtained from Promega. pBIND-TLX LBD was fully sequenced (ACGT, Inc.).
(§1) HeLa cells were maintained in D-MEM High Glucose (Hyclone) supplemented with 10% charcoal:dextran stripped FBS (Hyclone) and 1x Pen/Strep antibiotics (Life Technologies). Transient transfections were carried out in batches on 100,000 cells seeded into 12-well tissue culture plates. The co-transfections were performed using the TransFectin Lipid reagent (Bio-Rad) with approximately 10 ng/well of Gal4 DBD (gift from Phuong Nguyen, Fletterick Laboratory, UCSF) or GAL4-TLX LBD, 10 ng/well of renilla luciferase gene (Promega) for internal control and 200 ng/well of pGL4.35 reporter gene (containing an upstream Gal4 Upstream Activator Sequence and the luciferase gene, Promega). Approximately, 3 h after transfections, cells were treated with compounds of interest at different concentrations, or solvent (DMSO, 0.1%) in DMEM containing no fetal bovine serum or antibiotics. After a 16-h incubation, luciferase activities were assessed using Dual Luciferase assay reagent (Promega). Luciferase activities were calculated by normalizing firefly luciferase to renilla luciferase signal. […] Cells transfected with Gal4 DBD vector served as a control for TLX independent effects.
All measurements were performed in triplicates and repeated in three independent experiments. Prism 6 was used to calculate EC50.

human PNR (NR2E3) LBD = target: T1, human PNR (NR2E3) LBD (Homo sapiens, UniProt Q9Y5X4); assay: GAL4-PNR LBD luciferase transactivation assay in HeLa cells; type: cell-based; conditions: 10 µM, 24 h
T1 construct: expressed in transfected cells; host or cells: HeLa
T1 sequence (Q9Y5X4 192-410): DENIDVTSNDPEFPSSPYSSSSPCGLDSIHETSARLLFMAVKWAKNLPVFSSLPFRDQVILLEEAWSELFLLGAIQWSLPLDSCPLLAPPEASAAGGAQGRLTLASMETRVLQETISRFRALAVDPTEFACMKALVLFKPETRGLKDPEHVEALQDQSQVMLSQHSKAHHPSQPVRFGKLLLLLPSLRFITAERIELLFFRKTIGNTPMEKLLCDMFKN
Experimental: For the transactivation assays involving human PNR (Photoreceptor cell-specific Nuclear Receptor, NR2E3) LBD, we used an already described pBIND-PNR LBD (residues 192–410, [37]) plasmid (gift from Dr. H. Eric Xu, Van Andel Institute). The transient co-transfections of HeLa cells with vectors encoding either Gal4DBD or pBIND-PNR LBD fusion (both at 50 ng/well), pGL4.35 reporter gene (200 ng/well) and renilla luciferase gene (50 ng/well, internal control) were performed in batches of 10^5 cells seeded into 12-well tissue culture plates. Twenty-four hours after the transfections, cells were treated with either DMSO (0.1%, control) or compounds ccrp1, ccrp2 or ccrp3 at 10 µM. Following 24 h incubation, luciferase activities in each well were assessed as described above. Cells transfected with Gal4 DBD vector served as a control for PNR independent effects.

ERβ LBD = ERβ LBD (Homo sapiens, UniProt Q92731); assay: Gal4 DBD-ERβ LBD luciferase transactivation assay in HeLa cells; type: cell-based; set-up: vectors encoding either Gal4 DBD or Gal4 DBD-ERβ LBD fusion; expressed in transfected cells; host or cells: HeLa; conditions: 10 µM, 24 h, alone or in competition with E2 100 nM
Chain of ERβ LBD (Q92731 264-498 limits assumed): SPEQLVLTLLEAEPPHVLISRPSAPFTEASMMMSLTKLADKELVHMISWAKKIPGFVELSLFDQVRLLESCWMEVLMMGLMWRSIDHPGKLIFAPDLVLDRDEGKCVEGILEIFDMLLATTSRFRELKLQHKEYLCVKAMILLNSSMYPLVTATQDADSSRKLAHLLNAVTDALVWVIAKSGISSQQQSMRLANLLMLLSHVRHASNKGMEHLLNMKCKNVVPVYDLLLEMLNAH
Experimental: For ERβ, transient cotransfections of HeLa cells with vectors encoding either Gal4 DBD or Gal4 DBD-ERβ LBD fusion (gift from Dr. Stefan Andersson, University of Houston, deceased), both at 10 ng/well, constructs for Gal4-E1B promoter linked to a luciferase reporter gene (200 ng/well) and renilla luciferase gene (10 ng/well, internal control) were performed in batches of 10^5 cells seeded into 12-well tissue culture plates. At 24 h after the transfections, cells were treated with either DMSO (0.1%, control) or ccrp1; ccrp2 and ccrp3 at 10 µM, in the presence or absence of estradiol (E2, 100 nM), in the medium containing no fetal bovine serum. Following 24 h incubation, luciferase activities in each well were assessed as described above. Cells transfected with Gal4 DBD vector served as a control for ERβ independent effects.

HeLa cells = assay: Toxicity observed in transfection experiments; type: cell-based, human; conditions: tested at different concentrations
Experimental: HeLa cells were maintained in D-MEM High Glucose (Hyclone) supplemented with 10% charcoal:dextran stripped FBS (Hyclone) and 1x Pen/Strep antibiotics (Life Technologies). Transient transfections were carried out in batches on 100,000 cells seeded into 12-well tissue culture plates. The co-transfections were performed using the TransFectin Lipid reagent (Bio-Rad) with approximately 10 ng/well of Gal4 DBD (gift from Phuong Nguyen, Fletterick Laboratory, UCSF) or GAL4-TLX LBD, 10 ng/well of renilla luciferase gene (Promega) for internal control and 200 ng/well of pGL4.35 reporter gene (containing an upstream Gal4 Upstream Activator Sequence and the luciferase gene, Promega). Approximately, 3 h after transfections, cells were treated with compounds of interest at different concentrations, or solvent (DMSO, 0.1%) in DMEM containing no fetal bovine serum or antibiotics. After a 16-h incubation, luciferase activities were assessed using Dual Luciferase assay reagent (Promega). Luciferase activities were calculated by normalizing firefly luciferase to renilla luciferase signal. Normalized luciferase activities were then represented relative to control (DMSO-treated cells). Cells transfected with Gal4 DBD vector served as a control for TLX independent effects.

GAL4 DBD vector = assay: Luciferase assay in HeLa cells transfected with empty GAL4 DBD vector (absence of TLX); type: cell-based, human; conditions: different concentrations, 16 h
Experimental: as §1

[1] = HeLa cells, 16 h treatment, read-out: EC50 for enhancement of TLX transcriptional repression

Chain of TLX LBD (Q9Y466 187-385): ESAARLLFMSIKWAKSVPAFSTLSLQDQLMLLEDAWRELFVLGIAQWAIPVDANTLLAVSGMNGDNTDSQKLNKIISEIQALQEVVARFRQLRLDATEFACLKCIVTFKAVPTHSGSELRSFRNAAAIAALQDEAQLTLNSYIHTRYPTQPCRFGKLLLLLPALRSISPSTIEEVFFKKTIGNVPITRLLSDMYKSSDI

## CC(C)c1c(CN(C)C(C)Cc2ccccc2)n(C)n(-c2ccccc2)c1=O (stereo not drawn) [ccrp1, Famprofazone]
TLX LBD; [1]
  EC50: 9200 ± 1000 nM
Human PNR (NR2E3) LBD
  effect on PNR transcriptional activity: None of the compounds affected PNR transcriptional activity
ERβ LBD
  effect on ERβ luciferase activity: No effect on luciferase activity was detected
HeLa cells
  toxicity: None of the three compounds displayed toxicity
GAL4 DBD vector
  effect on luciferase activities in absence of TLX: do not affect the luciferase activities

## CC(=O)[C@H]1CC[C@H]2[C@@H]3C=CC4=CC(=O)CC[C@@]4(C)[C@@H]3CC[C@]12C [ccrp3, Dydrogesterone]
TLX LBD; [1]
  EC50: 250 ± 100 nM
Human PNR (NR2E3) LBD
  effect on PNR transcriptional activity: None of the compounds affected PNR transcriptional activity
ERβ LBD
  effect on ERβ luciferase activity: No effect on luciferase activity was detected
HeLa cells
  toxicity: None of the three compounds displayed toxicity
GAL4 DBD vector
  effect on luciferase activities in absence of TLX: do not affect the luciferase activities

## Cc1cc(C(=O)N2CCN(C(c3ccccc3)c3ccccc3)CC2)nn1C [ccrp2, 1-(1,5-dimethylpyrazole-3-carbonyl)-4-(diphenylmethyl)piperazine]
TLX LBD
  EC50: 1000 ± 300 nM
Human PNR (NR2E3) LBD
  effect on PNR transcriptional activity: None of the compounds affected PNR transcriptional activity
ERβ LBD
  effect on ERβ luciferase activity: No effect on luciferase activity was detected
HeLa cells
  toxicity: None of the three compounds displayed toxicity
GAL4 DBD vector
  effect on luciferase activities in absence of TLX: do not affect the luciferase activities
